# ChEMBL document CHEMBL5365531, “Structure-Activity Relationship Studies of SARS-CoV-2 Main Protease Inhibitors Containing 4-Fluorobenzothiazole-2-carbonyl Moieties” (J Med Chem, 2023)
# Legend:
# [1] = Mutagenicity in Salmonella typhimurium TA1535 assessed as fold increase in number of revertants at 0.152 to 333 ug incubated in absence of S9 fraction by micro-Ames test relative to control; format: toxicity, Salmonella enterica subsp. enterica serovar Typhimurium; conditions: in vivo; dose 0.152-333 µg
# [2] = target: Replicase polyprotein 1ab (Severe acute respiratory syndrome coronavirus 2, UniProt P0DTD1); assay: Inhibition of untagged SARS-CoV-2 JPN/TY/WK-521 Main protease using FRET-based UIVT3 as substrate by continuous fluorescence assay
# PBMC = assay: Cytotoxicity against human PBMC cells assessed as reduction in cell viability at 3 uM incubated for 12 days by CCK-8 assay; format: toxicity, cell-based; conditions: 288 h, time 12 day
# [3] = Mutagenicity in Escherichia coli WP2uvrA assessed as inhibition of bacterial growth at 0.152 to 333 ug incubated in presence of S9 fraction by micro-Ames test; format: toxicity, subcellular; conditions: dose 0.152-333 µg
# [4] = Oral bioavailability in PXB mouse at 10 mg/kg measured for 24 hrs; format: ADME, organism-based; conditions: in vivo
# [5] = Stability of compound in DMSO incubated for 7 days at -18 degreeC by RP-HPLC analysis; format: physicochemical; conditions: 168 h; time 7 day
# SARS-CoV-2 [6] = assay: Antiviral activity against SARS-CoV-2 assessed as fold change relative to YH-53; format: functional, Severe acute respiratory syndrome coronavirus 2
# [7] = Mutagenicity in Salmonella typhimurium TA100 assessed as fold increase in number of revertants at 0.152 to 333 ug incubated in absence of S9 fraction by micro-Ames test relative to control; format: toxicity, Salmonella enterica subsp. enterica serovar Typhimurium; conditions: in vivo; dose 0.152-333 µg
# [8] = Cytotoxicity against human A549-hACE2-TMPRSS2 cells; format: toxicity, cell-based
# SARS-CoV-2 [9] = assay: Antiviral activity against SARS-CoV-2 infected in Vero E6 cells preincubated with cells for 1 day in absence of HCl followed by viral infection and measured after 3 days by qRT-PCR analysis; format: functional, organism-based; conditions: Severe acute respiratory syndrome coronavirus 2, Vero C1008
# [10] = Mutagenicity in Salmonella typhimurium TA100 assessed as inhibition of bacterial growth at 0.152 to 333 ug incubated in presence of S9 fraction by micro-Ames test; format: toxicity, subcellular, Salmonella enterica subsp. enterica serovar Typhimurium; conditions: dose 0.152-333 µg
# [11] = Mutagenicity in Salmonella typhimurium TA1535 assessed as fold increase in number of revertants at 0.152 to 333 ug incubated in presence of S9 fraction by micro-Ames test relative to control; format: toxicity, subcellular, Salmonella enterica subsp. enterica serovar Typhimurium; conditions: dose 0.152-333 µg
# [12] = Mutagenicity in Salmonella typhimurium TA1537 assessed as fold increase in number of revertants at 0.152 to 333 ug incubated in absence of S9 fraction by micro-Ames test relative to control; format: toxicity, Salmonella enterica subsp. enterica serovar Typhimurium; conditions: in vivo; dose 0.152-333 µg
# [13] = Mutagenicity in Salmonella typhimurium TA98 assessed as fold increase in number of revertants at 0.152 to 333 ug incubated in presence of S9 fraction by micro-Ames test relative to control; format: toxicity, subcellular, Salmonella enterica subsp. enterica serovar Typhimurium; conditions: dose 0.152-333 µg
# [14] = Mutagenicity in Salmonella typhimurium TA1537 assessed as inhibition of bacterial growth at 0.152 to 333 ug incubated in presence of S9 fraction by micro-Ames test; format: toxicity, subcellular, Salmonella enterica subsp. enterica serovar Typhimurium; conditions: dose 0.152-333 µg
# SARS-CoV-2 [15] = assay: Antiviral activity against SARS-CoV-2 JPN/TY/WK-521 infected in Vero E6 cells assessed as inhibition of viral replication preincubated with cells for 1 day followed by viral infection and measured after 3 to 4 days by qRT-PCR analysis; format: functional, organism-based; conditions: Severe acute respiratory syndrome coronavirus 2, JPN/TY/WK-521, Vero C1008
# [16] = Mutagenicity in Salmonella typhimurium TA1537 assessed as inhibition of bacterial growth at 0.152 to 333 ug incubated in absence of S9 fraction by micro-Ames test; format: toxicity, Salmonella enterica subsp. enterica serovar Typhimurium; conditions: in vivo; dose 0.152-333 µg
# [17] = Cytotoxicity against human HepG2 cells; format: toxicity, cell-based
# [18] = Cytotoxicity against African green monkey Vero E6 cells in presence of P-glycoprotein inhibitor, CP100356; format: toxicity, cell-based, Vero C1008; conditions: chlorocebus sabaeus, with CP100356 (P-glycoprotein inhibitor)
# [19] = Mutagenicity in Escherichia coli WP2uvrA assessed as fold increase in number of revertants at 0.152 to 333 ug incubated in absence of S9 fraction by micro-Ames test relative to control; format: toxicity; conditions: in vivo; dose 0.152-333 µg
# [20] = Cytotoxicity against human HeLa cells expressing ACE2 and TMPRSS2; format: toxicity, cell-based
# [21] = Mutagenicity in Salmonella typhimurium TA98 assessed as inhibition of bacterial growth at 0.152 to 333 ug incubated in presence of S9 fraction by micro-Ames test; format: toxicity, subcellular, Salmonella enterica subsp. enterica serovar Typhimurium; conditions: dose 0.152-333 µg
# [22] = Stability of compound in 50% MeCN in H2O containing 0.05% trifluoroacetic acid assessed as (1R,2S,5S)-3-((S)-3,3-dimethyl-2-(2,2,2-trifluoroacetamido)butanoyl)-N-((S)-1-(4-fluorobenzo[d]thiazol-2-yl)-1-oxo-3-((S)-2-oxopyrrolidin-3-yl)propan-2-yl)-6,6-dimethyl-3-azabicyclo[3.1.0]hexane-2-carboxamide formation at 5 degreeC measured after 24 hrs by RP-HPLC analysis; format: physicochemical
# [23] = Mutagenicity in Salmonella typhimurium TA1535 assessed as inhibition of bacterial growth at 0.152 to 333 ug incubated in absence of S9 fraction by micro-Ames test; format: toxicity, Salmonella enterica subsp. enterica serovar Typhimurium; conditions: in vivo; dose 0.152-333 µg
# [24] = Mutagenicity in Escherichia coli WP2uvrA assessed as inhibition of bacterial growth at 0.152 to 333 ug incubated in absence of S9 fraction by micro-Ames test; format: toxicity; conditions: in vivo; dose 0.152-333 µg
# SARS-CoV-2 [25] = assay: Antiviral activity against SARS-CoV-2 infected in Vero E6 cells preincubated with cells for 1 day in presence of HCl treated compound followed by viral infection and measured after 3 days by qRT-PCR analysis; format: functional, organism-based; conditions: Severe acute respiratory syndrome coronavirus 2, Vero C1008
# SARS-CoV-2 [26] = assay: Antiviral activity against SARS-CoV-2 hCoV-19/Japan/TKYS02037/2022 (omicron BA.2) infected in Vero E6 cells preincubated with cells for 1 day followed by viral infection and measured after 3 days by qRT-PCR analysis; format: functional, organism-based; conditions: Severe acute respiratory syndrome coronavirus 2, hCoV-19/Japan/TKYS02037/2022 (omicron BA.2), Vero C1008
# [27] = Cytotoxicity against African green monkey Vero E6 cells incubated for 3 days by WST-8 assay; format: toxicity, cell-based, Vero C1008; conditions: chlorocebus sabaeus, time 3 day
# [28] = Mutagenicity in Salmonella typhimurium TA1535 assessed as inhibition of bacterial growth at 0.152 to 333 ug incubated in presence of S9 fraction by micro-Ames test; format: toxicity, subcellular, Salmonella enterica subsp. enterica serovar Typhimurium; conditions: dose 0.152-333 µg
# [29] = Mutagenicity in Salmonella typhimurium TA1537 assessed as fold increase in number of revertants at 0.152 to 333 ug incubated in presence of S9 fraction by micro-Ames test relative to control; format: toxicity, subcellular, Salmonella enterica subsp. enterica serovar Typhimurium; conditions: dose 0.152-333 µg
# [30] = Mutagenicity in Salmonella typhimurium TA98 assessed as fold increase in number of revertants at 0.152 to 333 ug incubated in absence of S9 fraction by micro-Ames test relative to control; format: toxicity, Salmonella enterica subsp. enterica serovar Typhimurium; conditions: in vivo; dose 0.152-333 µg
# [31] = Mutagenicity in Salmonella typhimurium TA98 assessed as inhibition of bacterial growth at 0.152 to 333 ug incubated in absence of S9 fraction by micro-Ames test; format: toxicity, Salmonella enterica subsp. enterica serovar Typhimurium; conditions: in vivo; dose 0.152-333 µg
# MOLT-4 = assay: Cytotoxicity against human MOLT-4 cells assessed as reduction in cell viability at 3 uM incubated for 12 days by CCK-8 assay; format: toxicity, cell-based; conditions: molt-4, 288 h, time 12 day
# [32] = Stability of compound in 50% MeCN in H2O incubated for 24 hrs at room temperature by RP-HPLC analysis; format: physicochemical
# SARS-CoV-2 [33] = assay: Antiviral activity against SARS-CoV-2 JPN/TY/WK-521 infected in Vero E6 cells preincubated with cells for 1 day followed by viral infection and measured after 3 days by qRT-PCR analysis; format: functional, organism-based; conditions: Severe acute respiratory syndrome coronavirus 2, JPN/TY/WK-521, Vero C1008
# [34] = Mutagenicity in Salmonella typhimurium TA100 assessed as fold increase in number of revertants at 0.152 to 333 ug incubated in presence of S9 fraction by micro-Ames test relative to control; format: toxicity, subcellular, Salmonella enterica subsp. enterica serovar Typhimurium; conditions: dose 0.152-333 µg
# [35] = Mutagenicity in Salmonella typhimurium TA100 assessed as inhibition of bacterial growth at 0.152 to 333 ug incubated in absence of S9 fraction by micro-Ames test; format: toxicity, Salmonella enterica subsp. enterica serovar Typhimurium; conditions: in vivo; dose 0.152-333 µg
# Vero C1008 = assay: Cytotoxicity against African green monkey Vero E6 cells infected with SARS-CoV-2 WK-521 upto 100 uM incubated for 3 days by immunostaining analysis; format: toxicity, cell-based; conditions: chlorocebus sabaeus, vero c1008, 72 h, time 3 day
# [36] = Mutagenicity in Escherichia coli WP2uvrA assessed as fold increase in number of revertants at 0.152 to 333 ug incubated in presence of S9 fraction by micro-Ames test relative to control; format: toxicity, subcellular; conditions: dose 0.152-333 µg
# MT2 = assay: Cytotoxicity against human MT2 cells assessed as reduction in cell viability at 3 uM incubated for 12 days by CCK-8 assay; format: toxicity, cell-based; conditions: mt2, 288 h, time 12 day
# SARS-CoV-2 [37] = assay: Antiviral activity against SARS-CoV-2 JPN/TY/WK-521 infected in Vero E6 cells assessed as fold change preincubated with cells for 1 day followed by viral infection and measured after 3 days by qRT-PCR analysis relative to TKB245; format: functional, Severe acute respiratory syndrome coronavirus 2; conditions: time 4 day
smiles,measurement,setting,value
CC(C)(C)[C@H](NC(=O)C(F)(F)F)C(=O)N1C[C@H]2[C@@H]([C@H]1C(=S)N[C@@H](C[C@@H]1CCNC1=O)C(=O)c1nc3c(F)cccc3s1)C2(C)C,fold change (FC),[1],> 2
same,IC50,[2],88 nM
same,Activity,PBMC,Non-Toxic
same,Activity,[3],Non-Toxic
same,bioavailability,[4],72%
same,Stability,[5],Stable
same,fold change (FC),SARS-CoV-2 [6],0.085
same,fold change (FC),[7],> 2
same,CC50,[8],> 100000 nM
same,EC50,SARS-CoV-2 [9],310 nM
same,Activity,[10],Non-Toxic
same,fold change (FC),[11],> 2
same,fold change (FC),[12],> 2
same,fold change (FC),[13],> 2
same,Activity,[14],Non-Toxic
same,EC50,SARS-CoV-2 [15],220 nM
same,Activity,[16],Non-Toxic
same,CC50,[17],> 200000 nM
same,CC50,[18],> 100000 nM
same,fold change (FC),[19],> 2
same,CC50,[20],> 100000 nM
same,Activity,[21],Non-Toxic
same,Stability,[22],Unstable
same,Activity,[23],Non-Toxic
same,Activity,[24],Non-Toxic
same,EC50,SARS-CoV-2 [25],320 nM
same,EC50,SARS-CoV-2 [26],160 nM
same,CC50 at 72 h,[27],> 100000 nM
same,Activity,[28],Non-Toxic
same,fold change (FC),[29],> 2
same,fold change (FC),[30],> 2
same,Activity,[31],Non-Toxic
same,Activity,MOLT-4,Non-Toxic
same,Stability,[32],Stable
same,EC50,SARS-CoV-2 [33],310 nM
same,fold change (FC),[34],> 2
same,Activity,[35],Non-Toxic
same,Activity,Vero C1008,Non-Toxic
same,fold change (FC),[36],> 2
same,Activity,MT2,Non-Toxic
same,fold change (FC),SARS-CoV-2 [37],11
